This assay deals with T1, human PDE5 (Homo sapiens, UniProt O76074).
T1 construct: from tissue; host or cells: platelets from fresh blood of human donors (lysate, 10,000 g supernatant)
Nature of the assay: Inhibition of the type 5 phosphodiesterase (PDE5) activity, modified SPA test with platelet lysate. It counts as biochemical. As to conditions: PDE5 from human platelet lysate, 0.5 μM cGMP. The method in brief:
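SPA-based cGMP hydrolysis, [3H]cGMP tracer in 0.5 μM cGMP, by sonicated human platelet lysate; motapizone (1 μM) and a PDE2 inhibitor (10 nM) block other PDEs. Reaction 15 min at 37 °C after 5 min preincubation, quenched with beads containing IBMX. IC50 from concentration-effect curves.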
For `O=C(N[C@H]1CC[C@H](C(=O)NC2CC2)CC1)c1c[nH]c2c(-c3c(OCC4CC4)ccc4c3OCO4)ncnc12` [Example 270, trans-4-(5-Cyclopropylmethoxy-benzo[1,3]dioxol-4-yl)-5H-pyrrolo[3,2-d]pyrimidine-7-carboxylic acid (4-cyclopropylcarbamoyl-cyclohexyl)-amide], the IC50 (as a rule, the concentration that gives 50% inhibition) is 0.191 nM.

On to `COc1ccc(-c2ncnc3c(C(=O)N[C@H]4CC[C@H](C(=O)NC5CC5)CC4)c[nH]c23)c(OCC2CC2)c1` [Example 271, trans-4-(2-Cyclopropylmethoxy-4-methoxy-phenyl)-5H-pyrrolo[3,2-d]pyrimidine-7-carboxylic acid (4-cyclopropylcarbamoyl-cyclohexyl)-amide], for which half-maximal inhibition (IC50) was put at 0.55 nM.

For the compound `COCCNC(=O)[C@H]1CC[C@H](NC(=O)c2c[nH]c3c(-c4ccc(OC)cc4OCC4CC4)ncnc23)CC1` [Example 272, trans-4-(2-Cyclopropylmethoxy-4-methoxy-phenyl)-5H-pyrrolo[3,2-d]pyrimidine-7-carboxylic acid [4-(2-methoxy-ethylcarbamoyl)-cyclohexyl]-amide], it took 0.708 nM to reach half-maximal inhibition (IC50).

`O=C(N[C@H]1CC[C@H](C(=O)NC2CC2)CC1)c1c[nH]c2c(-c3cc(F)ccc3OCC3CC3)ncnc12` [Example 273, trans-4-(2-Cyclopropylmethoxy-5-fluoro-phenyl)-5H-pyrrolo[3,2-d]pyrimidine-7-carboxylic acid (4-cyclopropylcarbamoyl-cyclohexyl)-amide]: the IC50 is 2.19 nM.

Compound `COCCNC(=O)[C@H]1CC[C@H](NC(=O)c2c[nH]c3c(-c4cc(F)ccc4OCC4CC4)ncnc23)CC1` [Example 274, trans-4-(2-Cyclopropylmethoxy-5-fluoro-phenyl)-5H-pyrrolo[3,2-d]pyrimidine-7-carboxylic acid [4-(2-methoxy-ethylcarbamoyl)-cyclohexyl]-amide] had an IC50 of 5.25 nM.

`COCCNC(=O)[C@H]1CC[C@H](NC(=O)c2c[nH]c3c(-c4c(OCC5CCC5)ccc5c4OCO5)ncnc23)CC1` [Example 275, trans-4-(5-Cyclobutylmethoxy-benzo[1,3]dioxol-4-yl)-5H-pyrrolo[3,2-d]pyrimidine-7-carboxylic acid [4-(2-methoxy-ethylcarbamoyl)-cyclohexyl]-amide] had an IC50 of 0.347 nM.

As for `O=C(N[C@H]1CC[C@H](C(=O)NC2CC2)CC1)c1c[nH]c2c(-c3c(OCC4CCC4)ccc4c3OCO4)ncnc12` [Example 276, trans-4-(5-Cyclobutylmethoxy-benzo[1,3]dioxol-4-yl)-5H-pyrrolo[3,2-d]pyrimidine-7-carboxylic acid (4-cyclopropylcarbamoyl-cyclohexyl)-amide], the concentration for half-maximal inhibition (IC50) is 0.166 nM.

The compound `CC(=O)N1CCC(NC(=O)c2c[nH]c3c(-c4cc(F)c(O)cc4OCC4CC4)ncnc23)CC1` [Example 277, 4-(2-Cyclopropylmethoxy-5-fluoro-4-hydroxy-phenyl)-5H-pyrrolo[3,2-d]pyrimidine-7-carboxylic acid (1-acetyl-piperidin-4-yl)-amide] gave a concentration for half-maximal inhibition (IC50) of 93.3 nM.

The compound `CCC(=O)N1CCC(NC(=O)c2c[nH]c3c(-c4cc(F)c(O)cc4OCC4CC4)ncnc23)CC1` [Example 278, 4-(2-Cyclopropylmethoxy-5-fluoro-4-hydroxy-phenyl)-5H-pyrrolo[3,2-d]pyrimidine-7-carboxylic acid (1-propionyl-piperidin-4-yl)-amide] showed a half-maximal inhibitory concentration (IC50) of 57.5 nM.

Compound `CC(=O)N1CCC(NC(=O)c2c[nH]c3c(-c4cc(F)c(OC(F)F)cc4OCC4CC4)ncnc23)CC1` [Example 279, 4-[2-Cyclopropylmethoxy-4-(1,1-difluoro-methoxy)-5-fluoro-phenyl]-5H-pyrrolo[3,2-d]pyrimidine-7-carboxylic acid (1-acetyl-piperidin-4-yl)-amide] had a 50% inhibitory concentration (IC50) of 2.34 nM.

Take `COCC(=O)N1CCC(NC(=O)c2c[nH]c3c(-c4cc(F)c(OC(F)F)cc4OCC4CC4)ncnc23)CC1` [Example 280, 4-[2-Cyclopropylmethoxy-4-(1,1-difluoro-methoxy)-5-fluoro-phenyl]-5H-pyrrolo[3,2-d]pyrimidine-7-carboxylic acid [1-(2-methoxy-ethanoyl)-piperidin-4-yl]amide]: it took 1.74 nM to reach half-maximal inhibition (IC50).

For `O=C(NC1CCN(C(=O)CO)CC1)c1c[nH]c2c(-c3cc(F)c(O)cc3OCC3CC3)ncnc12` [Example 281, 4-(2-Cyclopropylmethoxy-5-fluoro-4-hydroxy-phenyl)-5H-pyrrolo[3,2-d]pyrimidine-7-carboxylic acid [1-(2-hydroxy-acetyl)piperidin-4-yl]-amide], the IC50 is 851 nM.

Regarding `C[C@H](O)C(=O)N1CCC(NC(=O)c2c[nH]c3c(-c4cc(F)c(O)cc4OCC4CC4)ncnc23)CC1` [Example 282, 4-(2-Cyclopropylmethoxy-5-fluoro-4-hydroxy-phenyl)-5H-pyrrolo[3,2-d]pyrimidine-7-carboxylic acid [1-((S)-2-hydroxy-propionyl)piperidin-4-yl]-amide], half-maximal inhibition (IC50) required 251 nM.

In turn, `O=C(NC1CCN(C(=O)CO)CC1)c1c[nH]c2c(-c3cc(F)c(OC(F)F)cc3OCC3CC3)ncnc12` [Example 283, 4-[2-Cyclopropylmethoxy-4-(1,1-difluoro-methoxy)-5-fluoro-phenyl]-5H-pyrrolo[3,2-d]pyrimidine-7-carboxylic acid [1-(2-hydroxy-acetyl)piperidin-4-yl]-amide] gave an IC50 of 5.13 nM.

`C[C@H](O)C(=O)N1CCC(NC(=O)c2c[nH]c3c(-c4cc(F)c(OC(F)F)cc4OCC4CC4)ncnc23)CC1` [Example 284, 4-[2-Cyclopropylmethoxy-4-(1,1-difluoro-methoxy)-5-fluoro-phenyl]-5H-pyrrolo[3,2-d]pyrimidine-7-carboxylic acid [1-((S)-2-hydroxy-propionyl)-piperidin-4-yl]-amide] gave an IC50 of 2.88 nM.

For “trans-4-(2-Cyclopropylmethoxy-4-fluoro-phenyl)-5H-pyrrolo[3,2-d]pyrimidine-7-carboxylic acid [4-((S)-2-hydroxy-propionylamino)-cyclohexyl]-amide [Example 223]”, the “-log IC50 (mol/l)” value came to 8.46.
